In one experiment the test system is hMPV-GFP virus. Description: microbe, parasite or virus in culture. The experiment is classed as cell-based, human metapneumovirus. The method, then: GFP expressing rgHMPV #3 p3 was generated in Dr. Buchholz's lab (Biacchesi S. et al., J Virol. 2007 June; 81(11): 6057-6067) and propagated in VERO cells (ATCC Cat #CCL-81) with a Multiplicity of Infection (MOI) of 0.1. Virus was harvested 4 days after infection by collecting cultured material and was freeze-thaw cycled in liquid nitrogen twice. Working virus stocks were generated from thawing frozen samples in 37° C. water bath, which were centrifuged at 218 g for 15 min at 4° C. 1/10 of 10×SPG (Biological Industries 06-3061-01-5A) were added and then mixed. The supernatant was aliquoted, frozen in liquid nitrogen, and then transferred to a −80° C. freezer for storage. Virus titer was determined by performing titration test in 96-well plates and calculate approximate virus titer using GFP event/well data.
Compound plates were prepared by dispensing compounds dissolved in DMSO into wells of a 384 well Corning 3985 polystyrene flat clear bottom optical imaging microplate (202.5 nL/well) using an ECHO acoustic dispenser. Each compound was tested in 10-point serial 3-fold dilution (typical final concentrations: 40,300 nM-2 nM). […] Continuous culture of VERO cells was maintained in complete culture media (OptiMEM supplemented with 2 mM GlutaMAX™ and 100 U/ml Penicillin-Streptomycin). To set up the assay, VERO cells were trypsinized with 0.25% Trypsin-EDTA until cells were dislodged, then cells were re-suspended with 1 mL FBS. Cells were spun down at 300 g for 5 minutes and cells were washed twice with culture media and counted using default parameters on ViCell. Cells were then diluted to 100,000 cells/mL (5,000 cells/50 μL) in complete culture media+TrypLE Select (80 μL/mL). hMPV-GFP virus was added to cells at 125,000 pfu/mL (MOI=1.25) and were mixed by gentle inversion. 10 μL/well of 100% DMSO was dispensed to CellTiter-Glo (CTG) assay Max_E controls wells. Cells were dispensed at 50 μL/well using Bravo and 50 μL filtered tips into compound plates. Plates were covered with MicroClime lids and loaded with 7.5 mL of assay media to minimize evaporation. Plates were lightly shaken for 10 minutes at room temperature and then incubated at 37° C. and 5% CO2 for 48 hrs. Following incubation, distinct GFP-expressing cells were counted using an Acumen imaging system with appropriate settings. A same-well CTG assay was performed by adding 10 μL/well reconstituted CellTiter-Glo reagent (Promega G7573) and plates were read on PerkinElmer Envision according to manufacturer's instructions. Raw data were loaded and analyzed in ActivityBase. Antiviral IC50 and cytotoxicity CC50 values were determined using a 4 parameter logistic fit based on the Levenberg-Marquardt algorithm. Model: 205-4 Parameter Logistic. • References: Wen Z, Citron M, Bett A J, Espeseth A S, Vora K A, Zhang L, DiStefano D J. Development and application of a higher throughput RSV plaque assay by immunofluorescent imaging. J Virol Methods. 2019 January; 263:88-95. doi: 10.1016/j.jviromet.2018.10.022. Epub 2018 Oct. 28. PMD: 30381239. • Biacchesi S, Murphy B R, Collins P L, Buchholz U J. Frequent frameshift and point mutations in the SH gene of human metapneumovirus passaged in vitro. J Virol. 2007 June; 81(11):6057-67. doi: 10.1128/JVL.00128-07. Epub 2007 Mar. 21. PMID: 17376897; PMCID: MC 1900297. Assay Data

Another experiment has as its system RSV-A2-GFP virus. Kind of experiment: microbe, parasite or virus in culture. The experiment is classed as cell-based, Human Respiratory Syncytial Virus. The method, then: To set up the assay, ARF vials were thawed in a 37° C. water bath and a control compound was resuspended in assay media DMEM (Dulbecco's Modified Eagle Medium) containing 2% FBS, 100 U/ml Penicillin-Streptomycin.
GFP sequence was derived from pJTI™ R4 Dest CMV N-EmGFP pA Vector (Invitrogen) and was cloned into the intergenic sequence between wild-type RSV-A2 P and M genes using standard recombineering techniques. Recombinant RSV-A2-GFP was propagated in Hep2 cells (human cells contain HeLa marker chromosomes and were derived via HeLa contamination, ATCC CCL-23) with a Multiplicity of Infection (MOI) of 0.1. Virus was harvested 3 days after infection by collecting all culture material and then freeze-thawing the mixture for 5 min. Working virus stocks were generated by thawing frozen viral cultures in 37° C. water bath, which were centrifuged at 218 g for 15 min at 4° C. 1/10 of 10×SPG (Biological Industries 06-3061-01-5A) were added and then mixed. The supernatant was aliquoted, frozen in liquid nitrogen, and then transferred to a −80° C. freezer for storage. Virus titer was determined by automated plaque assay in HEp-2 cells following methods described previously (Wen Z. et al.; 2019).
Calu-1 cells were purchased from ATCC (Cat #HTB-54) and were expanded in growth media (DMEM containing 10% FBS, 100 U/ml Penicillin-Streptomycin). To make ARF, cell culture media was removed and discarded and the cell layer was briefly rinsed with PBS to remove serum. 2.5 mL of TrypLE Express solution were added and cells incubated until dislodged, to which growth media was added and the cells were resuspended by gentle pipetting. Cells were counted for concentration and viability as determined by ViCell. Cells were centrifuged at RT, 300 g for 5 minutes to pellet cells. The supernatant was gently aspirated and the pellet was flicked to loosen cells. Cells were resuspended in an appropriate volume of freezing medium (DMEM containing 10% DMSO, 10% FBS, 100 U/ml Penicillin-Streptomycin) to achieve a concentration of 5×10^6 cells/mL. 1 mL aliquots of the cell suspension were transferred to freezing vials. The vials were put into an upright container in a −80° C. freezer overnight before transferring vials to liquid nitrogen for storage.
Assay ready freezedown (ARF, generation described separately) Calu-1 cells (ATCC HTB-54) were used. Compound plates were prepared by dispensing compounds dissolved in DMSO into the wells of a 384 well Corning® 3985 plate with an ECHO acoustic dispenser and compounds were tested in 10-point serial 3-fold dilution. […] To set up the assay, ARF vial(s) were thawed in a 37° C. water bath and were then resuspended into assay media (DMEM containing 2% FBS, 100 U/ml Penicillin-Streptomycin). Cells were counted using default parameters on ViCell and diluted to 20,000 cells/mL in assay media. RSV-A2-GFP virus was added to cells at 24,000 pfu/ml (MOI=1.2) and mixed by gentle inversion. 10 μL/well of 100% DMSO was dispensed as CellTiter-Glo (CTG) assay Max_E controls wells. The cells were dispensed at 50 μL/well using Bravo with 50 μL filtered tips into compound plates. Plates were covered with MicroClime lids, loaded with 7.5 mL of assay media to minimize evaporation, and were incubated at 37° C. and 5% CO2 for 96 hrs. Following incubation, distinct, GFP-expressing cells were counted using an Acumen imaging system with appropriate settings. A same-well CTG assay was performed by adding 10 μL/well reconstituted CellTiter-Glo reagent (Promega G7573) and plates were read on PerkinElmer Envision according to manufacturer's instructions. Raw data were loaded and analyzed in ActivityBase. Antiviral IC50 and cytotoxicity CC50 values were determined using a 4 parameter logistic fit based on the Levenberg-Marquardt algorithm. Model: 205-4 Parameter Logistic.

[1] abbreviates: VERO cells infected with hMPV-GFP, 48 hrs, GFP-expressing cells counted, read-out: hMPV EC50.
Setting [2] is: Calu-1 cells infected with RSV-A2-GFP, 96 hrs, GFP-expressing cells counted, read-out: RSV EC50.
Where [3] appears, read: human metapneumovirus, Vero, 48 h, read-out: hMPV EC50, VERO cells infected with hMPV-GFP, 48 hrs, GFP-expressing cells counted.
Setting [4] is: human respiratory syncytial virus, Calu-1, 96 h, read-out: RSV EC50, Calu-1 cells infected with RSV-A2-GFP, 96 hrs, GFP-expressing cells counted.

Read-outs that look alike come from different tables or passages of the source.

Consider `CCC(C)(N)c1cc(OC2[C@H]3CN(C(=O)c4cn(-c5ncccn5)nc4C)C[C@@H]23)nc(-c2ccc(F)cc2)c1` (single isomer, unassigned; enantiomer 1) [Example 116A], for which the EC50 – broadly, the concentration needed to bring the measured effect to its halfway point – is greater than 100 nM in the experiment on hMPV-GFP virus (setting [1]) and less than 10 nM in the experiment on RSV-A2-GFP virus (setting [2]).

With `Cc1nn(-c2ncccn2)cc1C(=O)N1C[C@@H]2[C@H](C1)[C@H]2Oc1cc(C(C)(C)N)cc(-n2ncc3c(Cl)cccc32)n1` [Example 94, ((1R,5S,6s)-6-((4-(2-aminopropan-2-yl)-6-(4-chloro-1H-indazol-1-yl)pyridin-2-yl)oxy)-3-azabicyclo[3.1.0]hexan-3-yl)(3-methyl-1-(pyrimidin-2-yl)-1H-pyrazol-4-yl)methanone], the concentration for a half-maximal effect (EC50) in the experiment on hMPV-GFP virus (setting [3]) was greater than 100 nM; in the experiment on RSV-A2-GFP virus (setting [4]), less than 10 nM.

On to `CC(C)(N)c1cc(O[C@@H]2C[C@@H]3[C@H]2CN3C(=O)c2cnc(-c3ncccn3)s2)nc(-c2ccc(F)cc2)c1` (single isomer, unassigned) [Example 2], for which the EC50 in the experiment with hMPV-GFP virus (setting [3]) is greater than 100 nM; in the experiment on RSV-A2-GFP virus (setting [4]) it was 10 to 100 nM. Consider `CC(C)(N)c1cc(O[C@H]2[C@@H]3CN(C(=O)c4cnc(-c5ncccn5)s4)C[C@@H]32)nc(-c2ccc(F)cc2)c1` [Example 9, ((1R,5S,6s)-6-((4-(2-aminopropan-2-yl)-6-(4-fluorophenyl)pyridin-2-yl)oxy)-3-azabicyclo[3.1.0]hexan-3-yl)(2-(pyrimidin-2-yl)thiazol-5-yl)methanone], for which the concentration for a half-maximal effect (EC50) in the experiment with hMPV-GFP virus (setting [3]) is greater than 100 nM; with RSV-A2-GFP virus (setting [4]), less than 10 nM. In the case of `Cc1nn(-c2ncccn2)nc1C(=O)N1C[C@@H]2[C@H](C1)[C@H]2Oc1cc(C(C)(C)N)cc(-c2ccc(F)cc2)n1` [Example 76, ((1R,5S,6s)-6-((4-(2-aminopropan-2-yl)-6-(4-fluorophenyl)pyridin-2-yl)oxy)-3-azabicyclo[3.1.0]hexan-3-yl)(5-methyl-2-(pyrimidin-2-yl)-2H-1,2,3-triazol-4-yl)methanone], the values for the EC50 in the experiment on hMPV-GFP virus (setting [1]) and with RSV-A2-GFP virus (setting [2]) were greater than 100 nM and 10 to 100 nM, respectively.

Consider `CC(C)(N)c1cc(O[C@H]2[C@@H]3CN(C(=O)c4cn(-c5ncccn5)nc4C(F)(F)F)C[C@@H]32)nc(-c2ccc(F)cc2)c1` [Example 67, ((1R,5S,6s)-6-((4-(2-aminopropan-2-yl)-6-(4-fluorophenyl)pyridin-2-yl)oxy)-3-azabicyclo[3.1.0]hexan-3-yl)(1-(pyrimidin-2-yl)-3-(trifluoromethyl)-1H-pyrazol-4-yl)methanone], for which the EC50 in the experiment with hMPV-GFP virus (setting [1]) is greater than 100 nM; in the experiment with RSV-A2-GFP virus (setting [2]) it was less than 10 nM. The like results for `COc1cc(C(F)(F)F)ccc1-c1cc(C(C)(C)N)cc(O[C@H]2[C@@H]3CN(C(=O)c4cn(-c5ncccn5)nc4C)C[C@@H]32)n1` [Example 88, ((1R,5S,6s)-6-((4-(2-aminopropan-2-yl)-6-(2-methoxy-4-(trifluoromethyl)phenyl)pyridin-2-yl)oxy)-3-azabicyclo[3.1.0]hexan-3-yl)(3-methyl-1-(pyrimidin-2-yl)-1H-pyrazol-4-yl)methanone] were, in that order, greater than 100 nM and less than 10 nM. On the same counts, the results for `Cc1nn(-c2ncc(F)cn2)cc1C(=O)N1C[C@@H]2[C@H](C1)[C@H]2Oc1cc(C(C)(C)N)cc(-c2ccc(F)cc2)n1` [Example 71, ((1R,5S,6s)-6-((4-(2-aminopropan-2-yl)-6-(4-fluorophenyl)pyridin-2-yl)oxy)-3-azabicyclo[3.1.0]hexan-3-yl)(1-(5-fluoropyrimidin-2-yl)-3-methyl-1H-pyrazol-4-yl)methanone] are greater than 100 nM and less than 10 nM. Take `Cc1nc(-c2ncccn2)sc1C(=O)N1C[C@@H]2[C@H](C1)[C@H]2Oc1cc(C(C)(C)N)cc(-c2ccc(F)c(F)c2)n1` [Example 15, ((1R,5S,6s)-6-((4-(2-aminopropan-2-yl)-6-(3,4-difluorophenyl)pyridin-2-yl)oxy)-3-azabicyclo[3.1.0]hexan-3-yl)(4-methyl-2-(pyrimidin-2-yl)thiazol-5-yl)methanone]: in the experiment with RSV-A2-GFP virus (setting [2]), the EC50 is less than 10 nM. In the case of `Cc1nn(-c2ccccc2)cc1C(=O)N1C[C@@H]2[C@H](C1)[C@H]2Oc1cc(C(C)(C)N)cc(-c2ccc(F)cc2)n1` [Example 74, ((1R,5S,6s)-6-((4-(2-aminopropan-2-yl)-6-(4-fluorophenyl)pyridin-2-yl)oxy)-3-azabicyclo[3.1.0]hexan-3-yl)(3-methyl-1-phenyl-1H-pyrazol-4-yl)methanone], the EC50 with RSV-A2-GFP virus (setting [2]) is less than 10 nM. The same measure, in the same setting: under `Cc1ccc(-c2cc(C(C)(C)N)cc(O[C@H]3[C@@H]4CN(C(=O)c5sc(-c6ncccn6)nc5C)C[C@@H]43)n2)cc1` [Example 21, ((1R,5S,6s)-6-((4-(2-aminopropan-2-yl)-6-(p-tolyl)pyridin-2-yl)oxy)-3-azabicyclo[3.1.0]hexan-3-yl)(4-methyl-2-(pyrimidin-2-yl)thiazol-5-yl)methanone] stands less than 10 nM.
